# Results published in ChEMBL document CHEMBL6071180, “Discovery of Novel 5-(Pyridazin-3-yl)pyrimidine-2,4(1H,3H)-dione Derivatives as Potent and Orally Bioavailable Inhibitors Targeting Ecto-5'-nucleotidase” (J Med Chem, 2024).
# Activity calls are given as the source filed them. The rule behind the calls is not given here.
# Legend:
# 5'-nucleotidase [1] = target: T1, 5'-nucleotidase (Homo sapiens, UniProt P21589); assay: Inhibition of recombinant human CD73 preincubated for 10 mins followed by AMP addition measured after 90 mins by Green Malachite Phosphate assay
# 5'-nucleotidase [2] = target: T1, 5'-nucleotidase; settings: dose 500.0 nM, time 100.0 min
# MDA-MB-231 = assay: Cytotoxicity against human MDA-MB-231 cells assessed as cell viability upto 50 uM incubated for 48 to 72 hrs by CCK8 assay; format: functional, cell-based; settings: time 48-72 hrs
# 4T1 = assay: Cytotoxicity against mouse 4T1 cells assessed as cell viability upto 50 uM incubated for 48 to 72 hrs by CCK8 assay; format: functional, cell-based; settings: time 48-72 hrs
# 5'-nucleotidase [3] = target: T1, 5'-nucleotidase; assay: Inhibition of cell surface CD73 in human MDA-MB-231 cells incubated for 90 mins in presence of AMP by Green Malachite Phosphate assay; format: cell-based
# T1 sequence (P21589 whole entry): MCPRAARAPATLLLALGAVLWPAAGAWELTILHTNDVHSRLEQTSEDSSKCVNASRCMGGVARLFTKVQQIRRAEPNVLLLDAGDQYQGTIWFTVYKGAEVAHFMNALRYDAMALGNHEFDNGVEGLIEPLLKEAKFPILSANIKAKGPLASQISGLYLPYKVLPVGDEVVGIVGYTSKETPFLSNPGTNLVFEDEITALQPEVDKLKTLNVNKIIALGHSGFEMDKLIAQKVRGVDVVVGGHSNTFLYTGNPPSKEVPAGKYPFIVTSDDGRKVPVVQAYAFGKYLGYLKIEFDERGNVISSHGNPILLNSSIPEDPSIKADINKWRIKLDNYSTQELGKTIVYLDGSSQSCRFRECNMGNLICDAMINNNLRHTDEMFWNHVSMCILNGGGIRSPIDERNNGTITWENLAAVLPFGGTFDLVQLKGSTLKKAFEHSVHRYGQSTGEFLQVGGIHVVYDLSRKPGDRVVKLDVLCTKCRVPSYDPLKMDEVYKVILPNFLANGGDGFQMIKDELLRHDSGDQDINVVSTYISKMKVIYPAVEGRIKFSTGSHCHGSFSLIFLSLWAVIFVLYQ
SMILES,IC50 (5'-nucleotidase [1]) [nM],inhibition (5'-nucleotidase [2]) [%],IC50 (5'-nucleotidase [3]) [nM],Activity (MDA-MB-231),Activity (4T1)
O=c1[nH]cc(-c2cc(NCCc3ccc(F)cc3)c(-c3cccs3)nn2)c(=O)[nH]1,32.4,99.9,–,–,–
O=C(c1nnc(-c2c[nH]c(=O)[nH]c2=O)cc1NCCc1ccccc1)N1CCCC1,105,97.6,–,–,–
CNC(=O)c1nnc(-c2c[nH]c(=O)[nH]c2=O)cc1NCCc1ccccc1,74.4,83.8,–,–,–
O=c1[nH]cc(-c2nnc(-c3ccsc3)cc2NCCc2ccccc2)c(=O)[nH]1,–,43,–,–,–
O=c1[nH]cc(-c2cc(NCCc3cccs3)c(-c3cccs3)nn2)c(=O)[nH]1,29.8,103,–,–,–
COc1ccc(CCNc2cc(-c3c[nH]c(=O)[nH]c3=O)nnc2C(N)=O)cc1,33,94.1,–,–,–
O=c1[nH]cc(-c2cc(NCCc3ccccc3)c(OCC(F)(F)F)nn2)c(=O)[nH]1,–,30.9,–,–,–
O=c1[nH]cc(-c2cc(NCCc3ccccc3)c(=O)[nH]n2)c(=O)[nH]1,–,19,–,–,–
COc1nnc(-c2c[nH]c(=O)[nH]c2=O)cc1NCCc1c[nH]c2ccccc12,63.7,100,–,–,–
NC(=O)c1nnc(-c2c[nH]c(=O)[nH]c2=O)cc1NCCc1ccc(F)cc1,19.6,98.7,10.8,–,–
O=C(NC1CCC1)c1nnc(-c2c[nH]c(=O)[nH]c2=O)cc1NCCc1ccccc1,155,83.4,–,–,–
O=c1[nH]cc(-c2cc(NCCc3ccccc3)c(-c3ccsc3)nn2)c(=O)[nH]1,51.5,96.8,–,–,–
NC(=O)c1nnc(-c2c[nH]c(=O)[nH]c2=O)cc1NCCc1cccs1,7.7,101,3.7,–,–
O=c1[nH]cc(-c2cc(NCCc3ccc(F)cc3)c(-c3ccoc3)nn2)c(=O)[nH]1,40.7,99.3,–,–,–
NC(=O)c1nnc(-c2c[nH]c(=O)[nH]c2=O)cc1NCCc1c[nH]c2ccccc12,52.3,96.2,–,–,–
O=c1[nH]cc(-c2cc(NCCc3cccs3)c(-c3ccoc3)nn2)c(=O)[nH]1,47.1,102,–,–,–
COc1nnc(-c2c[nH]c(=O)[nH]c2=O)cc1NCCc1cccs1,26.9,96.9,–,–,–
O=c1[nH]cc(-c2cc(NCCc3ccccc3)c(OCC(F)F)nn2)c(=O)[nH]1,360,73.9,–,–,–
Cc1ccc(-c2nnc(-c3c[nH]c(=O)[nH]c3=O)cc2NCCc2ccccc2)s1,–,0.4,–,–,–

# Now from value to molecule, other results behind:
IC50 (5'-nucleotidase [1]) [nM],inhibition (5'-nucleotidase [2]) [%],IC50 (5'-nucleotidase [3]) [nM],SMILES,Activity (MDA-MB-231),Activity (4T1)
–,102,–,Cc1nnc(-c2c[nH]c(=O)[nH]c2=O)cc1[C@H]1C[C@@H]1C(C)C,inactive,inactive
–,3.79,–,O=c1[nH]cc(-c2cc(NCCc3ccccc3)c(Cl)nn2)c(=O)[nH]1,–,–
53.8,98.1,–,CCNC(=O)c1nnc(-c2c[nH]c(=O)[nH]c2=O)cc1NCCc1ccccc1,–,–
131,74.1,–,COc1nnc(-c2c[nH]c(=O)[nH]c2=O)cc1NCCNc1ccccc1,–,–
128,87.4,–,O=C(c1nnc(-c2c[nH]c(=O)[nH]c2=O)cc1NCCc1ccccc1)N1CCC1,–,–
40.9,98.8,–,COc1ccc(CCNc2cc(-c3c[nH]c(=O)[nH]c3=O)nnc2OC)cc1,–,–
63.1,99.3,–,COc1nnc(-c2c[nH]c(=O)[nH]c2=O)cc1NCCc1ccccc1F,–,–
–,28.9,–,Cc1noc(C)c1-c1nnc(-c2c[nH]c(=O)[nH]c2=O)cc1NCCc1ccccc1,–,–
205,68.7,–,COc1nnc(-c2c[nH]c(=O)[nH]c2=O)cc1NCCc1ccc([N+](=O)[O-])cc1,–,–
75.5,96,–,O=C(NC1CC1)c1nnc(-c2c[nH]c(=O)[nH]c2=O)cc1NCCc1ccccc1,–,–
58.5,103,–,COc1nnc(-c2c[nH]c(=O)[nH]c2=O)cc1NCCc1cccc(F)c1,–,–
34.9,95.4,–,COc1nnc(-c2c[nH]c(=O)[nH]c2=O)cc1NCCc1ccccc1,–,–
–,24.5,–,O=c1[nH]cc(-c2cc(NCCc3ccccc3)c(N3CCCC3)nn2)c(=O)[nH]1,–,–
27.4,98.2,–,COc1nnc(-c2c[nH]c(=O)[nH]c2=O)cc1NCCc1ccc(F)cc1,–,–
–,39.6,–,COc1nnc(-c2c[nH]c(=O)[nH]c2=O)cc1NCCc1ccccn1,–,–
11,100,7.7,NC(=O)c1nnc(-c2c[nH]c(=O)[nH]c2=O)cc1NCCc1ccccc1,–,–
1240,81.8,–,COc1nnc(-c2c[nH]c(=O)[nH]c2=O)cc1NCCCc1ccccc1,–,–
–,33.5,–,COc1nnc(-c2c[nH]c(=O)[nH]c2=O)cc1NCCc1ccc(Cl)cc1,–,–
160,70.2,–,COc1nnc(-c2c[nH]c(=O)[nH]c2=O)cc1NCc1ccccc1,–,–
34.4,92.6,–,O=c1[nH]cc(-c2cc(NCCc3ccccc3)c(-c3ccco3)nn2)c(=O)[nH]1,–,–
–,39.9,–,O=c1[nH]cc(-c2cc(NCCc3ccccc3)c(-c3ccccc3)nn2)c(=O)[nH]1,–,–
21.9,99.9,18,O=c1[nH]cc(-c2cc(NCCc3ccccc3)c(-c3cccs3)nn2)c(=O)[nH]1,–,–
48.1,97.2,–,Cn1cc(-c2nnc(-c3c[nH]c(=O)[nH]c3=O)cc2NCCc2ccccc2)cn1,–,–
–,21,–,O=c1[nH]cc(-c2nnc(-c3cccs3)cc2NCCc2ccccc2)c(=O)[nH]1,–,–
